In patent publication US20260055079A1, “PHTHALAZINONE COMPOUNDS AS PARP7 INHIBITORS” (AZKARRA THERAPEUTICS, INC., priority 2022, published 2026):

Tests used:
[1] = system: type I interferon reporter; experiment: IRSE luciferase reporter in CT-26 cells; format: cell-based; conditions: CT-26 cells stably expressing IRSE luciferase reporter, 16 h
Protocol: (§1) FIG. 4B provides of Western blots in FIG. 4A. Quantification was performed using BioRad ImageLab software. Curves were fit using four parameter nonlinear regression in GraphPad Prism. STAT1 and pSTAT1 levels were normalized to tubulin. Data was from 3 biological replicates. […] Treatment was as in FIG. 4A. Note: tubulin blot was the same as in FIG. 4A since samples were run on the same nitrocellulose membrane for western blot analysis. SE=short exposure; LE=long exposure. […] Treatment was as in FIG. 4A. Note: tubulin blot is the same as in FIG. 4A since samples were run on the same nitrocellulose membrane for western blot analysis. […] Quantification was performed using BioRad ImageLab software. Curves fitting was done using a four parameter nonlinear regression in GraphPad Prism. PARP7 levels were normalized to tubulin. Data was from 3 biological replicates. […] IFN-0 levels were determined by ELISA (PBL Assay Science). Statistical analysis was performed as one-way ANOVA in GraphPad Prism. ****=p<0.001. […] Luciferase levels were measured using a luciferase assay reagent (Promega).

secreted IFN-β = experiment: Interferon-β ELISA, CT-26 cells; format: cell-based, mouse; conditions: saturating doses
Protocol: CT-26 cells were seeded into a 6-well plate. After 24 h, the growth media was replaced, and cells were treated with inhibitors. After treatment, growth media was harvested and assayed with PBL Verikine Mouse IFN-β ELISA kit following the manufacturer protocol.

[2] = system: interferon-sensitive response element (ISRE)-firefly luciferase; experiment: ISRE luciferase assay, ISRE-Luc CT-26 cells; format: cell-based, mouse; conditions: 16 h, saturating doses
Protocol: 10,000 ISRE-Luc CT-26 or WT CT-26 cells were seeded into wells of a white 96-well plate and grown overnight. Compounds were serial diluted at 1000× concentration in DMSO. For dosing, compound dose response curves were dilute 1:100 in culture media, then added at 1:10 dilution to cell culture. Final DMSO concentration was 0.1%. Cells were incubated in treatment for 18 hours. Following treatment, the plates were developed using ONE-Glo Luciferase Assay system (Promega) per manufacturer directions. The luminescence signal was read on a Spectra Max i3 (Molecular Devices) plate reader with a 2 second integration time. WT CT-26 signal was background subtracted and curves were fit using a four-parameter […] regression in GraphPad Prism 9.

PARP7 [3] = target: T1, PARP7 (Mus musculus (Mouse), UniProt Q8C1B2); experiment: Cell fractionation and PARP7 Western blot in CT-26 cells; format: cell-based; conditions: 300 nM, 18 h, fractionation
[4] = system: STAT1 and phosphor-Tyr701-STAT1 (pSTAT1); experiment: STAT1 and pSTAT1 Western blot in CT-26 cells; format: cell-based
Protocol: as §1, with “(Promega). […] Treatment was same as in FIG. 10A. Note: tubulin blot is the same as in FIG. 10A since samples were run on the same nitrocellulose membrane for western blot analysis. […] Treatment was same as in FIG. 10A. […] Proteins were detected by Western blot using specific antibodies.” for “(Promega).”

PARP7 [5] = target: T1, PARP7; experiment: PARP7 protein levels Western blot in CT-26 cells; format: cell-based
Protocol: as §1, with “(Promega). […] Treatment was same as in FIG. 10A. Note: tubulin blot is the same as in FIG. 10A since samples were run on the same nitrocellulose membrane for western blot analysis. […] Treatment was same as in FIG. 10A. […] Proteins were detected by Western blot using specific antibodies.” for “(Promega).”

endogenous PARP7 = endogenous PARP7 (Mus musculus (Mouse), UniProt Q8C1B2); experiment: Endogenous PARP7 protein levels in CT-26 cells (western blot); format: cell-based
[6] = system: STAT1 and STAT1 Tyr701 phosphorylation (pSTAT1); experiment: STAT1 and pSTAT1 (Tyr701) western blot in CT-26 cells; format: cell-based, mouse; conditions: increasing concentrations, 16 h
IFN-β = IFN-β ELISA in CT-26 cells; format: cell-based; conditions: 300 nM, 16 h, with or without STING inhibitor H-151 (500 nM)
Protocol: as §1

NCI-H1373 cells [7] = experiment: Cell Titer-Glo viability assay in NCI-H1373 cells; format: cell-based; conditions: 6 d treatment, increasing concentrations
Text: Curves were fit using three parameter a nonlinear regression in GraphPad Prism.

GFP-PARP7 = GFP-PARP7 (Homo sapiens (Human), UniProt Q7Z3E1); experiment: Live cell imaging of GFP-PARP7 in HeLa cells; format: cell-based; conditions: HeLa cells overexpressing GFP-PARP7 and mRuby2-Nup90, 300 nM
HiBiT-PARP7 = HiBiT-PARP7 (Mus musculus (Mouse), UniProt Q8C1B2); experiment: Nuclear PARP7 immunofluorescence in HiBiT-PARP7 knockin CT-26 cells; format: cell-based; conditions: HiBiT-PARP7 KI CT-26 cells, 300 nM, 18 h
STING = STING degradation and signaling Western blot in CT-26 cells; format: cell-based
Protocol: as §1, with “(Promega). […] Treatment was same as in FIG. 10A. Note: tubulin blot is the same as in FIG. 10A since samples were run on the same nitrocellulose membrane for western blot analysis. […] Treatment was same as in FIG. 10A. […] Proteins were detected by Western blot using specific antibodies.” for “(Promega).”

NCI-H1373 cells [8] = experiment: Cell Titer-Glo viability, NCI-H1373; format: cell-based; conditions: Homo sapiens, NCI-H1373, 144 h; 6 days, CellTiter-Glo
Protocol: NCI-H1373 cells were seeded in a white 96-well plate (Corning) at a density of 1,000 cells per well. After 24 hours, cells were treated with PARP7 inhibitors and incubated at 37° C. for 6 days. Cell viability was assessed using CellTiter-Glo (CTG) 2.0 (Promega). After addition of the CTG reagent (following manufacturer protocol), the plate was incubated on an orbital shaker for 15 min (protected from light) at room temperature. Chemiluminescence was measured on a Spectra Max i3 (Molecular Devices), normalized to DMSO-treated wells, and IC50 values were calculated by non-linear regression (three-parameter fit) analysis using Prism 9 (GraphPad).

[9] = increasing concentrations, 16 h

endogenous PARP7, sequence (Q8C1B2 whole entry): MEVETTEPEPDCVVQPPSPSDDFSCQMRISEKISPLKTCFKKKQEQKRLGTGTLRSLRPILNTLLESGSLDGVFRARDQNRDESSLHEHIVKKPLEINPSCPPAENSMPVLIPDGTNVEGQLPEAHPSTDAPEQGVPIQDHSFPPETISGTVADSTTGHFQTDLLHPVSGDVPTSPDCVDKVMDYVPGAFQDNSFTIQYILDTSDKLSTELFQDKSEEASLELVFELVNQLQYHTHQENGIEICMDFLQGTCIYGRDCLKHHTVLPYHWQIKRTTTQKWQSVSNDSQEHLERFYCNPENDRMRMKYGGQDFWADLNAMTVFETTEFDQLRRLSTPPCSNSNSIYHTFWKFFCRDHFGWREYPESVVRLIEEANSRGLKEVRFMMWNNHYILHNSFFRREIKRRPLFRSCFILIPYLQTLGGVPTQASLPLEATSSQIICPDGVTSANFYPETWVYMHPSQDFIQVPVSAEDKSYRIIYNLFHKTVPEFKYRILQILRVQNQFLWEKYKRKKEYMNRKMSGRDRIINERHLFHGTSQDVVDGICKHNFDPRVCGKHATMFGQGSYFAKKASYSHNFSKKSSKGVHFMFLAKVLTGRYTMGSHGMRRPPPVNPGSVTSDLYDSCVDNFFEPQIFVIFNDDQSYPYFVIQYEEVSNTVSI
GFP-PARP7, sequence (Q7Z3E1 whole entry): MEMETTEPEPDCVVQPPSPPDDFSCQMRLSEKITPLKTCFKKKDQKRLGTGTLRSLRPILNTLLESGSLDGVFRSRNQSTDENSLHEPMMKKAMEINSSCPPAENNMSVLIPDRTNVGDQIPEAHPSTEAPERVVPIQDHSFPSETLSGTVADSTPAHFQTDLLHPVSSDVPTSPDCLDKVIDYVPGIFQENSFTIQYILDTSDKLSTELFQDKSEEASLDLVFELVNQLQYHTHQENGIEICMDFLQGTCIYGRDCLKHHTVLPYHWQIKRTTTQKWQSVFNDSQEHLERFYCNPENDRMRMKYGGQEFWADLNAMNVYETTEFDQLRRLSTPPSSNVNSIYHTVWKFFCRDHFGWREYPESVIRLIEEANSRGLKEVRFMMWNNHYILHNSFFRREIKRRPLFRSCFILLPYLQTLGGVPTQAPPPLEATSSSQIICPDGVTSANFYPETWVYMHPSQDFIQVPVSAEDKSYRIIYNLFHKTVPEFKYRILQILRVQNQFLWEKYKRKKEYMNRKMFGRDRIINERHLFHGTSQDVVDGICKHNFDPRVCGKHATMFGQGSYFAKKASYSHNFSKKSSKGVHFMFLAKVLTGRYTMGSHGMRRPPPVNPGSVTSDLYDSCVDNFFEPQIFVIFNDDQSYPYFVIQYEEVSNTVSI
HiBiT-PARP7, sequence (Q8C1B2 whole entry): as the sequence (Q8C1B2 whole entry) above

`C[C@@H](COCCC(=O)N1CCN(c2ncc(C(F)(F)F)cn2)CC1)Nc1cn[nH]c(=O)c1C(F)(F)F` [RBN-2397] was tested, and the “type I interferon reporter levels” value [1] was “increase type I interferon reporter levels in a dose dependent manner”, the “levels of secreted IFN-β” value (secreted IFN-β) was “increased significantly the levels of secreted IFN-β to a greater extent than Example 10” and the “magnitude of ISRE-Luc response compared to Example 10” value [2] was about 2 fold. The “subcellular localisation of PARP7” value (PARP7 [3]) was “PARP7 levels were only detected in nucleus”, the “STAT1 and pSTAT1 levels, time dependence” value ([4]; 300 nM) was “increase STAT1 and pSTAT1 in a time-dependent manner” and the “STAT1 and pSTAT1 levels, dose dependence” value [4, 9] was “increase STAT1 and phosphor-Tyr701-STAT1 (pSTAT1) in a dose-dependent manner”. The “PARP7 levels, time dependence” value (PARP7 [5]; 300 nM) was “increase PARP7 levels in a time-dependent manner”, the “PARP7 levels, dose dependence” value (PARP7 [5]; [9]) was “increase PARP7 levels in a dose-dependent manner” and the “endogenous PARP7 levels” value (endogenous PARP7) was “increased PARP7 levels”. For the same molecule, the “increase in PARP7 protein abundance compared to Example 10” value (endogenous PARP7; saturating doses) was 2 fold, the “STAT1 and pSTAT1 levels” value [6] was “dose-dependently increased STAT1 and pSTAT1 levels” and the IFN-β levels (IFN-β) was “increase IFN-β levels in a STING-dependent manner”. The cell viability (NCI-H1373 cells [7]) was “decreases viability”, the “time to detectable increase in nuclear PARP7 levels” value (GFP-PARP7) was at most 30 min and the “nuclear PARP7 protein levels” value (HiBiT-PARP7) was “increases nuclear PARP7 protein levels”. The “STING and pIRF3 levels, time dependence” value (STING; 300 nM) was “decrease STING levels and increase pIRF3 levels in a time-dependent manner”, the “STING degradation and signaling” value (STING; [9]) was “induced STING degradation and signaling, but not to the same extent as a STING agonist” and the EC50 (NCI-H1373 cells [8]) was 17.8 nM.
